Values after ≈ are worked out from the molar mass of the structure shown. Values joined by “and” are separate entries in the source; they are usually repeats but may differ in a detail not shown here. Equal values may be shown once.
How the values were obtained:
RAW264.7 macrophages = conditions: RAW264.7, 48 h, ±SD
M. phlei = assay: Microdilution MIC assay in cation-adjusted Mueller–Hinton broth; format: cell-based, Mycobacterium phlei; conditions: Mycolicibacterium phlei, read-out: MIC M. phlei
M. tuberculosis MurE [1] = biological target: T1, M. tuberculosis MurE (Mycobacterium tuberculosis, UniProt P9WJL3); assay: MurE ligase inhibition, phosphate colorimetric detection method; format: biochemical
T1 sequence (P9WJL3 1-535): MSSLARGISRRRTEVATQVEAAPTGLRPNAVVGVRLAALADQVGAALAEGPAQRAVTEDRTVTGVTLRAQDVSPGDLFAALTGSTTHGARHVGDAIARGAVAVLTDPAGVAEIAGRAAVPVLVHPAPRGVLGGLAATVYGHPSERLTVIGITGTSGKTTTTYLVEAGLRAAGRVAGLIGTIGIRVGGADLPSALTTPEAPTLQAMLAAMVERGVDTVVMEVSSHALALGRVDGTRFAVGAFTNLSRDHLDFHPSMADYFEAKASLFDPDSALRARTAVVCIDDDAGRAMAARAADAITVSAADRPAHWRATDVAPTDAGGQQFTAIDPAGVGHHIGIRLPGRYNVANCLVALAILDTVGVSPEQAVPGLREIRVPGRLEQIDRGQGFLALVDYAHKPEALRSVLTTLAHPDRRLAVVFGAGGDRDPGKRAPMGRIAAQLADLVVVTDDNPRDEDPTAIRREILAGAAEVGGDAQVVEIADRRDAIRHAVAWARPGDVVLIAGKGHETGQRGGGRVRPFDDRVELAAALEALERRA

M. smegmatis mc^2155 = assay: microbe, parasite or virus in culture; format: cell-based, Mycobacterium smegmatis; conditions: Mycolicibacterium smegmatis, MC^2155, 72 h, read-out: MIC M. smegmatis mc^2155
M. fortuitum = assay: Microdilution MIC assay in cation-adjusted Mueller–Hinton broth; format: cell-based, Mycobacterium fortuitum; conditions: Mycolicibacterium fortuitum, read-out: MIC M. fortuitum
M. tuberculosis MurE [2] = biological target: T1, M. tuberculosis MurE; assay: MurE ligase inhibition, HPLC quantification of UDP-MurNAc-tripeptide; format: biochemical
EMRSA-15 = assay: Microdilution MIC assay in Mueller–Hinton broth; format: cell-based; conditions: Staphylococcus aureus, read-out: MIC S. aureus EMRSA-15
EMRSA-16 = assay: Microdilution MIC assay in Mueller–Hinton broth; format: cell-based; conditions: Staphylococcus aureus, read-out: MIC S. aureus EMRSA-16

SMILES | Murine macrophages GIC50 (50% growth inhibition concentration) (RAW264.7 macrophages) [mg/L] | MIC (M. phlei) | IC50 (M. tuberculosis MurE [1]) [µM] | MIC (M. smegmatis mc^2155) | MIC (M. fortuitum) | IC50 (M. tuberculosis MurE [2]) [µM] | MIC (EMRSA-15) [µg/mL] | MIC (EMRSA-16) [µg/mL]
NNC(=O)c1ccncc1 [Isoniazid] | >500 | 4 µg/mL and 15 µM | > 1000 | 5 µg/mL and 18.5 µM | 1 µg/mL and 3.65 µM | > 1000 | – | –
CCn1cc(C(=O)O)c(=O)c2cc(F)c(N3CCNCC3)cc21 [norfloxacin] | – | – | – | – | – | – | 0.5 (≈ 1.57 µM) | 256 (≈ 802 µM)

From publication PMC3133487 (Journal of Antimicrobial Chemotherapy, 2011)
